# Results published in patent US20160256449A1, “H3 RECEPTOR ANTAGONIST FOR USE IN THE TREATMENT OF ALZHEIMER'S DISEASE” (SANOFI, priority 2013, published 2016).
# How the values were obtained:
# [1] = system: patients with mild to moderate Alzheimer's disease; assay: clinical study, actigraphy (Actiwatch); assay type: in vivo, human; conditions: for Interdaily variability, Ch from bl FUP / Intradaily stability, Ch from bl FUP / Mean awakening duration, Ch from bl FUP / Number of awakenings, Ch from bl FUP / Relative amplitude, Ch from bl FUP / Sleep efficiency, Ch from bl FUP / Sleep fragmentation, Ch from bl FUP / Total sleep time, Ch from bl FUP / Wake after sleep onset, Ch from bl FUP: follow-up
# Description: Actigraphy as used herein refers to an assessment of activity measured by an Actiwatch®, which was worn day and night by the patient during 4 periods of 15 days: before randomization, immediately after randomization, around week 12 and after treatment discontinuation around week 34 during the clinical study described in Example 2. The watch measures movements translating into assessment of sleep quality (number and duration of awakenings, wake after sleep onset or WASO, fragmentation index, sleep efficiency, total sleep period, total sleep time) and circadian rhythms ([…], relative amplitude).
# A randomized, double-blind, parallel-group, placebo-controlled clinical trial was performed to study the effect on cognitive performance, safety, and tolerability of 2-(cyclohexylmethyl)-N-{2-[(2S)-1-methylpyrrolidin-2-yl]ethyl}-1,2,3,4-tetrahydroisoquinoline-7-sulfonamide difumarate monohydrate as adjunct treatment to donepezil.
# More specifically, patients with mild to moderate Alzheimer's disease on stable donepezil therapy were randomized to receive doses of 0.5 mg, 2 mg, or 5 mg/day of 2-(cyclohexylmethyl)-N-{2-[(2S)-1-methylpyrrolidin-2-yl]ethyl}-1,2,3,4-tetrahydroisoquinoline-7-sulfonamide difumarate monohydrate or placebo for 24 weeks, with a 10 week follow-up period.
# Patients were randomized to receive 0.5 mg, 2 mg, or 5 mg of 2-(cyclohexylmethyl)-N-{2-[(2S)-1-methylpyrrolidin-2-yl]ethyl}-1,2,3,4-tetrahydroisoquinoline-7-sulfonamide difumarate monohydrate (measured in base form), or matching placebo once a day, with donepezil (5 mg or 10 mg in the form the patient took prior to enrollment), for 24 weeks, with or without food.
# [2] = system: patients with mild to moderate Alzheimer's disease; assay: clinical study, ADAS-Cog 11 items; assay type: in vivo, human; conditions: mITT
# Description: “ADAS-Cog” as used herein, refers to a sensitive and standardized neuropsychological test battery to assess cognitive dysfunction characteristics of patients with AD including memory and orientation, language (aphasia), motor skills (praxis), attention and concentration. The original, standard version consists of 11 items. The total score of these 11-item scores ranges from 0-70 with higher scores indicating greater cognitive impairment. More recently, two additional tasks have been added in a new 13-item version of the scale proposed for patients with mild disease: Delayed Word Recall and Concentration/Distractibility.
# A randomized, double-blind, parallel-group, placebo-controlled clinical trial was performed to study the effect on cognitive performance, safety, and tolerability of 2-(cyclohexylmethyl)-N-{2-[(2S)-1-methylpyrrolidin-2-yl]ethyl}-1,2,3,4-tetrahydroisoquinoline-7-sulfonamide difumarate monohydrate as adjunct treatment to donepezil. […]
# Patients were randomized to receive 0.5 mg, 2 mg, or 5 mg of 2-(cyclohexylmethyl)-N-{2-[(2S)-1-methylpyrrolidin-2-yl]ethyl}-1,2,3,4-tetrahydroisoquinoline-7-sulfonamide difumarate monohydrate (measured in base form), or matching placebo once a day, with donepezil (5 mg or 10 mg in the form the patient took prior to enrollment), for 24 weeks, with or without food. […]
smiles,measurement,setting,value
"CN1CCC[C@H]1CCNS(=O)(=O)c1ccc2c(c1)CN(CC1CCCCC1)CC2 [API, 2-(cyclohexylmethyl)-N-{2-[(2S)-1-methylpyrrolidin-2-yl]ethyl}-1,2,3,4-tetrahydroisoquinoline-7-sulfonamide difumarate monohydrate]","Interdaily variability, Ch from bl W2",[1]; 0.5 mg/day with donepezil,0.01
same,"Interdaily variability, Ch from bl W12",[1]; 0.5 mg/day with donepezil,0.04
same,"Intradaily stability, Ch from bl W2",[1]; 0.5 mg/day with donepezil,−0.03
same,"Intradaily stability, Ch from bl W12",[1]; 0.5 mg/day with donepezil,−0.06
same,"Mean awakening duration, Ch from bl W2",[1]; 0.5 mg/day with donepezil,0.08 min
same,"Mean awakening duration, Ch from bl W12",[1]; 0.5 mg/day with donepezil,0.22 min
same,"Mean awakening duration, significance (unlabelled line under Ch from bl W12)",[1]; 0.5 mg/day with donepezil,0.0109
same,"Number of awakenings, Ch from bl W2",[1]; 0.5 mg/day with donepezil,−0.37
same,"Number of awakenings, Ch from bl W12",[1]; 0.5 mg/day with donepezil,−0.55
same,"Relative amplitude, Ch from bl W2",[1]; 0.5 mg/day with donepezil,0.00
same,"Relative amplitude, Ch from bl W12",[1]; 0.5 mg/day with donepezil,0.02
same,"Sleep efficiency, Ch from bl W2",[1]; 0.5 mg/day with donepezil,−0.05%
same,"Sleep efficiency, Ch from bl W12",[1]; 0.5 mg/day with donepezil,−0.53%
same,"Sleep efficiency, significance (unlabelled line under Ch from bl W12)",[1]; 0.5 mg/day with donepezil,0.0121
same,"Sleep fragmentation, Ch from bl W2",[1]; 0.5 mg/day with donepezil,0.91
same,"Sleep fragmentation, Ch from bl W12",[1]; 0.5 mg/day with donepezil,0.29
same,"Total sleep time, Ch from bl W2",[1]; 0.5 mg/day with donepezil,−0.03 h.min
same,"Total sleep time, Ch from bl W12",[1]; 0.5 mg/day with donepezil,0.05 h.min
same,"Wake after sleep onset, Ch from bl W2",[1]; 0.5 mg/day with donepezil,0.02 h.min
same,"Wake after sleep onset, Ch from bl W12",[1]; 0.5 mg/day with donepezil,0.03 h.min
same,"Interdaily variability, Ch from bl FUP",[1]; 0.5 mg/day with donepezil,−0.02
same,"Intradaily stability, Ch from bl FUP",[1]; 0.5 mg/day with donepezil,0.06
same,"Mean awakening duration, Ch from bl FUP",[1]; 0.5 mg/day with donepezil,0.01 min
same,"Number of awakenings, Ch from bl FUP",[1]; 0.5 mg/day with donepezil,1.34
same,"Relative amplitude, Ch from bl FUP",[1]; 0.5 mg/day with donepezil,−0.01
same,"Sleep efficiency, Ch from bl FUP",[1]; 0.5 mg/day with donepezil,−0.69%
same,"Sleep fragmentation, Ch from bl FUP",[1]; 0.5 mg/day with donepezil,0.98
same,"Total sleep time, Ch from bl FUP",[1]; 0.5 mg/day with donepezil,0.24 h.min
same,"Wake after sleep onset, Ch from bl FUP",[1]; 0.5 mg/day with donepezil,0.04 h.min
same,sleep quality assessed by wake after sleep onset (WASO) over placebo,"[1]; 2 mg and 5 mg groups, from week 12",dose-dependent worsening of sleep quality
same,"Interdaily variability, Ch from bl W2",[1]; 2 mg/day with donepezil,−0.01
same,"Interdaily variability, Ch from bl W12",[1]; 2 mg/day with donepezil,−0.03
same,"Intradaily stability, Ch from bl W2",[1]; 2 mg/day with donepezil,0.02
same,"Intradaily stability, Ch from bl W12",[1]; 2 mg/day with donepezil,0.01
same,"Mean awakening duration, Ch from bl W2",[1]; 2 mg/day with donepezil,0.14 min
same,"Mean awakening duration, Ch from bl W12",[1]; 2 mg/day with donepezil,0.40 min
same,"Mean awakening duration, significance (unlabelled line under Ch from bl W12)",[1]; 2 mg/day with donepezil,<.0001
same,"Number of awakenings, Ch from bl W2",[1]; 2 mg/day with donepezil,0.51
same,"Number of awakenings, Ch from bl W12",[1]; 2 mg/day with donepezil,1.26
same,"Relative amplitude, Ch from bl W2",[1]; 2 mg/day with donepezil,−0.03
same,"Relative amplitude, Ch from bl W12",[1]; 2 mg/day with donepezil,−0.06
same,"Relative amplitude, significance (unlabelled line under Ch from bl W12)",[1]; 2 mg/day with donepezil,<.0001
same,"Sleep efficiency, Ch from bl W2",[1]; 2 mg/day with donepezil,−1.65%
same,"Sleep efficiency, Ch from bl W12",[1]; 2 mg/day with donepezil,−2.58%
same,"Sleep efficiency, significance (unlabelled line under Ch from bl W12)",[1]; 2 mg/day with donepezil,<.0001
same,"Sleep fragmentation, Ch from bl W2",[1]; 2 mg/day with donepezil,2.82
same,"Sleep fragmentation, Ch from bl W12",[1]; 2 mg/day with donepezil,6.31
same,"Sleep fragmentation, significance (unlabelled line under Ch from bl W12)",[1]; 2 mg/day with donepezil,<.0001
same,"Total sleep time, Ch from bl W2",[1]; 2 mg/day with donepezil,−0.1 h.min
same,"Total sleep time, Ch from bl W12",[1]; 2 mg/day with donepezil,−0.2 h.min
same,"Wake after sleep onset, Ch from bl W2",[1]; 2 mg/day with donepezil,0.07 h.min
same,"Wake after sleep onset, Ch from bl W12",[1]; 2 mg/day with donepezil,0.18 h.min
same,"Wake after sleep onset, significance (unlabelled line under Ch from bl W12)",[1]; 2 mg/day with donepezil,<.0001
same,"Interdaily variability, Ch from bl FUP",[1]; 2 mg/day with donepezil,−0.01
same,"Intradaily stability, Ch from bl FUP",[1]; 2 mg/day with donepezil,0.04
same,"Mean awakening duration, Ch from bl FUP",[1]; 2 mg/day with donepezil,0.34 min
same,"Number of awakenings, Ch from bl FUP",[1]; 2 mg/day with donepezil,1.27
same,"Relative amplitude, Ch from bl FUP",[1]; 2 mg/day with donepezil,−0.07
same,"Sleep efficiency, Ch from bl FUP",[1]; 2 mg/day with donepezil,−3.97%
same,"Sleep fragmentation, Ch from bl FUP",[1]; 2 mg/day with donepezil,3.93
same,"Total sleep time, Ch from bl FUP",[1]; 2 mg/day with donepezil,−0.25 h.min
same,"Wake after sleep onset, Ch from bl FUP",[1]; 2 mg/day with donepezil,0.13 h.min
same,"Total sleep time, significance (unlabelled line under Ch from bl W12)","[1]; 2 mg/day with donepezil, NS = non-significant",0.06)
same,total sleep time,[1]; 5 mg,No modification
same,total sleep time and WASO after treatment discontinuation (FUP),[1]; 5 mg group,improved
same,"Interdaily variability, Ch from bl W2",[1]; 5 mg/day with donepezil,0.00
same,"Interdaily variability, Ch from bl W12",[1]; 5 mg/day with donepezil,−0.04
same,"Intradaily stability, Ch from bl W2",[1]; 5 mg/day with donepezil,−0.05
same,"Intradaily stability, Ch from bl W12",[1]; 5 mg/day with donepezil,0.02
same,"Mean awakening duration, Ch from bl W2",[1]; 5 mg/day with donepezil,0.30 min
same,"Mean awakening duration, Ch from bl W12",[1]; 5 mg/day with donepezil,0.38 min
same,"Mean awakening duration, significance (unlabelled line under Ch from bl W12)",[1]; 5 mg/day with donepezil,<.0001
same,"Number of awakenings, Ch from bl W2",[1]; 5 mg/day with donepezil,−0.52
same,"Number of awakenings, Ch from bl W12",[1]; 5 mg/day with donepezil,0.84
same,"Relative amplitude, Ch from bl W2",[1]; 5 mg/day with donepezil,−0.02
same,"Relative amplitude, Ch from bl W12",[1]; 5 mg/day with donepezil,−0.08
same,"Relative amplitude, significance (unlabelled line under Ch from bl W12)",[1]; 5 mg/day with donepezil,0.0015
same,"Sleep efficiency, Ch from bl W2",[1]; 5 mg/day with donepezil,−1.82%
same,"Sleep efficiency, Ch from bl W12",[1]; 5 mg/day with donepezil,−2.26%
same,"Sleep efficiency, significance (unlabelled line under Ch from bl W12)",[1]; 5 mg/day with donepezil,<.0001
same,"Sleep fragmentation, Ch from bl W2",[1]; 5 mg/day with donepezil,3.57
same,"Sleep fragmentation, Ch from bl W12",[1]; 5 mg/day with donepezil,5.83
same,"Sleep fragmentation, significance (unlabelled line under Ch from bl W12)",[1]; 5 mg/day with donepezil,0.0005
same,"Total sleep time, Ch from bl W2",[1]; 5 mg/day with donepezil,−0.11 h.min
same,"Total sleep time, Ch from bl W12",[1]; 5 mg/day with donepezil,−0.05 h.min
same,"Wake after sleep onset, Ch from bl W2",[1]; 5 mg/day with donepezil,0.08 h.min
same,"Wake after sleep onset, Ch from bl W12",[1]; 5 mg/day with donepezil,0.17 h.min
same,"Wake after sleep onset, significance (unlabelled line under Ch from bl W12)",[1]; 5 mg/day with donepezil,<.0001
same,"Interdaily variability, Ch from bl FUP",[1]; 5 mg/day with donepezil,0.00
same,"Intradaily stability, Ch from bl FUP",[1]; 5 mg/day with donepezil,−0.03
same,"Mean awakening duration, Ch from bl FUP",[1]; 5 mg/day with donepezil,0.12 min
same,"Number of awakenings, Ch from bl FUP",[1]; 5 mg/day with donepezil,1.20
same,"Relative amplitude, Ch from bl FUP",[1]; 5 mg/day with donepezil,−0.02
same,"Sleep efficiency, Ch from bl FUP",[1]; 5 mg/day with donepezil,−0.89%
same,"Sleep fragmentation, Ch from bl FUP",[1]; 5 mg/day with donepezil,3.08
same,"Total sleep time, Ch from bl FUP",[1]; 5 mg/day with donepezil,0.1 h.min
same,"Wake after sleep onset, Ch from bl FUP",[1]; 5 mg/day with donepezil,0.09 h.min
same,ADAS-Cog score compared to placebo,"[2]; 5 mg/day with donepezil, at follow-up",statistically significant improvement
same,mean differences in the ADAS-Cog change score,"[2]; after 24 weeks of treatment, with donepezil",not significantly different
